Experimental data reported in ChEMBL document CHEMBL3046766, “Design, synthesis, and insecticidal evaluation of new benzoylureas containing isoxazoline and isoxazole group” (2011).

What was measured:
Type in all cases: functional
Mythimna separata [1] = experiment: Insecticidal activity against Mythimna separata (Oriental armyworm) fourth-instar larvae infested compound pre-treated corn leaves assessed as larvicidal activity at 50 mg/L measured 4 days post treatment
Plutella xylostella [2] = experiment: Insecticidal activity against Plutella xylostella (diamondback moth) […] larvae infested on compound pre-treated fresh cabbage leaves assessed as larvicidal activity at 200 mg/L measured 3 days post treatment
Culex pipiens pallens [3] = experiment: Insecticidal activity against Culex pipiens pallens (mosquito) fourth-instar larvae assessed as larvicidal activity at 2 mg/L measured 8 days post treatment; conditions: 192 h
Mythimna separata [4] = experiment: Insecticidal activity against Mythimna separata (Oriental armyworm) fourth-instar larvae infested compound pre-treated corn leaves assessed as larvicidal activity at 100 mg/L measured 4 days post treatment
Mythimna separata [5] = experiment: Insecticidal activity against Mythimna separata (Oriental armyworm) fourth-instar larvae infested compound pre-treated corn leaves assessed as larvicidal activity at 25 mg/L measured 4 days post treatment
Plutella xylostella [6] = experiment: Insecticidal activity against Plutella xylostella (diamondback moth) […] larvae infested on compound pre-treated fresh cabbage leaves assessed as larvicidal activity at 20 mg/L measured 3 days post treatment
Plutella xylostella [7] = experiment: Insecticidal activity against Plutella xylostella (diamondback moth) […] larvae infested on compound pre-treated fresh cabbage leaves assessed as larvicidal activity at 5 mg/L measured 3 days post treatment
Culex pipiens pallens [8] = experiment: Insecticidal activity against Culex pipiens pallens (mosquito) fourth-instar larvae assessed as larvicidal activity at 0.5 mg/L measured 8 days post treatment; conditions: 192 h
Culex pipiens pallens [9] = experiment: Insecticidal activity against Culex pipiens pallens (mosquito) fourth-instar larvae assessed as larvicidal activity at 1 mg/L measured 8 days post treatment; conditions: 192 h
Mythimna separata [10] = experiment: Insecticidal activity against Mythimna separata (Oriental armyworm) fourth-instar larvae infested compound pre-treated corn leaves assessed as larvicidal activity at 10 mg/L measured 4 days post treatment
Plutella xylostella [11] = experiment: Insecticidal activity against Plutella xylostella (diamondback moth) […] larvae infested on compound pre-treated fresh cabbage leaves assessed as larvicidal activity at 0.02 mg/L measured 3 days post treatment
Plutella xylostella [12] = experiment: Insecticidal activity against Plutella xylostella (diamondback moth) […] larvae infested on compound pre-treated fresh cabbage leaves assessed as larvicidal activity at 0.2 mg/L measured 3 days post treatment
Plutella xylostella [13] = experiment: Insecticidal activity against Plutella xylostella (diamondback moth) […] larvae infested on compound pre-treated fresh cabbage leaves assessed as larvicidal activity at 2 mg/L measured 3 days post treatment
Mythimna separata [14] = experiment: Insecticidal activity against Mythimna separata (Oriental armyworm) fourth-instar larvae infested compound pre-treated corn leaves assessed as larvicidal activity at 2.5 mg/L measured 4 days post treatment
Mythimna separata [15] = experiment: Insecticidal activity against Mythimna separata (Oriental armyworm) fourth-instar larvae infested compound pre-treated corn leaves assessed as larvicidal activity at 5 mg/L measured 4 days post treatment
Mythimna separata [16] = experiment: Insecticidal activity against Mythimna separata (Oriental armyworm) fourth-instar larvae infested compound pre-treated corn leaves assessed as larvicidal activity at 200 mg/L measured 4 days post treatment
Culex pipiens pallens [17] = experiment: Insecticidal activity against Culex pipiens pallens (mosquito) fourth-instar larvae assessed as larvicidal activity at 0.1 mg/L measured 8 days post treatment; conditions: 192 h
Culex pipiens pallens [18] = experiment: Insecticidal activity against Culex pipiens pallens (mosquito) fourth-instar larvae assessed as larvicidal activity at 0.25 mg/L measured 8 days post treatment; conditions: 192 h
Plutella xylostella [19] = experiment: Insecticidal activity against Plutella xylostella (diamondback moth) […] larvae infested on compound pre-treated fresh cabbage leaves assessed as larvicidal activity at 100 mg/L measured 3 days post treatment
Culex pipiens pallens [20] = experiment: Insecticidal activity against Culex pipiens pallens (mosquito) fourth-instar larvae assessed as larvicidal activity at 0.025 mg/L measured 8 days post treatment; conditions: 192 h
Culex pipiens pallens [21] = experiment: Insecticidal activity against Culex pipiens pallens (mosquito) fourth-instar larvae assessed as larvicidal activity at 0.05 mg/L measured 8 days post treatment; conditions: 192 h
Mythimna separata [22] = experiment: Insecticidal activity against Mythimna separata (Oriental armyworm) fourth-instar larvae infested compound pre-treated corn leaves assessed as larvicidal activity at 1 mg/L measured 4 days post treatment

SMILES	mortality at 50 µg/mL (Mythimna separata [1]) [%]	mortality at 200 µg/mL (Plutella xylostella [2]) [%]	mortality at 2 µg/mL (Culex pipiens pallens [3]) [%]	mortality at 100 µg/mL (Mythimna separata [4]) [%]	mortality at 20 µg/mL (Plutella xylostella [6]) [%]	mortality at 200 µg/mL (Mythimna separata [16]) [%]	also measured
O=C(NC(=O)c1c(F)cccc1F)Nc1ccc(C2=NOC3(CCCCC3)C2)cc1	40	20	70	100	–	–	–
O=C(NC(=O)c1c(F)cccc1F)Nc1ccc(C2=NOC3(CCCC3)C2)cc1	60	10	80	100	–	–	–
O=C(NC(=O)c1c(F)cccc1F)Nc1ccc(C2=NOC3CCCC23)cc1 (stereo not drawn)	0	0	50	100	–	–	–
O=C(NC(=O)c1c(F)cccc1F)Nc1ccc(C2=NOC3CC23)cc1 (stereo not drawn)	0	10	60	100	–	–	–
O=C(NC(=O)c1c(F)cccc1F)Nc1ccc(C2CC(c3ccc(F)cc3)=NO2)cc1 (stereo not drawn)	100	100	100	–	70	–	mortality at 25 µg/mL (Mythimna separata [5]): 100%; mortality at 5 µg/mL (Plutella xylostella [7]): 0%; mortality at 0.5 µg/mL (Culex pipiens pallens [8]): 70%; mortality at 1 µg/mL (Culex pipiens pallens [9]): 100%; mortality at 10 µg/mL (Mythimna separata [10]): 60%
CC(C)(C)C1=NOC(c2ccc(NC(=O)NC(=O)c3c(F)cccc3F)cc2)C1 (stereo not drawn)	100	100	100	–	100	–	mortality at 25 µg/mL (Mythimna separata [5]): 100%; mortality at 5 µg/mL (Plutella xylostella [7]): 30%; mortality at 1 µg/mL (Culex pipiens pallens [9]): 80%; mortality at 10 µg/mL (Mythimna separata [10]): 40%
CC(C)(C)c1cc(-c2ccc(NC(=O)NC(=O)c3c(F)cccc3F)cc2)no1	–	–	40	–	–	–	mortality at 0.02 µg/mL (Plutella xylostella [11]): 30%; mortality at 0.2 µg/mL (Plutella xylostella [12]): 60%; mortality at 2 µg/mL (Plutella xylostella [13]): 100%; mortality at 5 µg/mL (Plutella xylostella [7]): 100%; mortality at 2.5 µg/mL (Mythimna separata [14]): 0%; mortality at 5 µg/mL (Mythimna separata [15]): 100%; mortality at 10 µg/mL (Mythimna separata [10]): 100%
O=C(NC(=O)c1c(F)cccc1F)Nc1ccc(-c2cc(COCC(F)(F)F)on2)cc1	20	30	40	100	0	100	–
CCCCOCc1cc(-c2ccc(NC(=O)NC(=O)c3c(F)cccc3F)cc2)no1	80	0	60	100	–	100	–
Cc1cc(-c2ccc(NC(=O)NC(=O)c3c(F)cccc3F)cc2)no1	20	10	20	100	–	100	–
CCCCCCCCc1cc(-c2ccc(NC(=O)NC(=O)c3c(F)cccc3F)cc2)no1	20	10	40	100	–	100	–
CC(C)(C)C1CC(c2ccc(NC(=O)NC(=O)c3c(F)cccc3F)cc2)=NO1 (stereo not drawn)	100	–	–	–	–	–	mortality at 25 µg/mL (Mythimna separata [5]): 100%; mortality at 0.02 µg/mL (Plutella xylostella [11]): 10%; mortality at 0.2 µg/mL (Plutella xylostella [12]): 70%; mortality at 2 µg/mL (Plutella xylostella [13]): 80%; mortality at 5 µg/mL (Plutella xylostella [7]): 100%; mortality at 0.1 µg/mL (Culex pipiens pallens [17]): 50%; mortality at 0.25 µg/mL (Culex pipiens pallens [18]): 100%; mortality at 5 µg/mL (Mythimna separata [15]): 40%; mortality at 10 µg/mL (Mythimna separata [10]): 100%
O=C(NC(=O)c1c(F)cccc1F)Nc1ccc(C2=NOC(c3ccc(F)cc3)C2)cc1 (stereo not drawn)	–	–	40	–	100	10	mortality at 2 µg/mL (Plutella xylostella [13]): 30%; mortality at 5 µg/mL (Plutella xylostella [7]): 80%
CCCCC1CC(c2ccc(NC(=O)NC(=O)c3c(F)cccc3F)cc2)=NO1 (stereo not drawn)	0	80	30	100	20	100	mortality at 100 µg/mL (Plutella xylostella [19]): 70%
O=C(NC(=O)c1c(F)cccc1F)Nc1ccc(C2=NOC(CBr)C2)cc1 (stereo not drawn)	20	40	60	100	0	–	–
CCCCCCCC1CC(c2ccc(NC(=O)NC(=O)c3c(F)cccc3F)cc2)=NO1 (stereo not drawn)	60	0	50	100	–	–	–
N#CC1CC(c2ccc(NC(=O)NC(=O)c3c(F)cccc3F)cc2)=NO1 (stereo not drawn)	0	0	–	100	–	–	mortality at 0.1 µg/mL (Culex pipiens pallens [17]): 70%; mortality at 0.25 µg/mL (Culex pipiens pallens [18]): 100%
COC(=O)C1CC(c2ccc(NC(=O)NC(=O)c3c(F)cccc3F)cc2)=NO1 (stereo not drawn)	0	10	60	100	–	–	–
CCCCOCC1CC(c2ccc(NC(=O)NC(=O)c3c(F)cccc3F)cc2)=NO1 (stereo not drawn)	40	10	100	100	–	–	mortality at 1 µg/mL (Culex pipiens pallens [9]): 80%
O=C(NC(=O)c1c(F)cccc1F)Nc1ccc(C2=NOC(COCC(F)(F)F)C2)cc1 (stereo not drawn)	60	0	40	100	–	–	–
O=C(NC(=O)c1c(F)cccc1F)Nc1ccc(C2=NOC(c3ccccc3)C2)cc1 (stereo not drawn)	0	50	–	100	30	–	mortality at 0.1 µg/mL (Culex pipiens pallens [17]): 90%; mortality at 0.25 µg/mL (Culex pipiens pallens [18]): 100%
CC1(c2ccccc2)CC(c2ccc(NC(=O)NC(=O)c3c(F)cccc3F)cc2)=NO1 (stereo not drawn)	60	100	–	100	30	100	mortality at 100 µg/mL (Plutella xylostella [19]): 80%; mortality at 0.5 µg/mL (Culex pipiens pallens [8]): 100%; mortality at 0.1 µg/mL (Culex pipiens pallens [17]): 80%; mortality at 0.25 µg/mL (Culex pipiens pallens [18]): 100%
O=C(NC(=O)c1c(F)cccc1F)Nc1ccc(CO/N=C(/c2ccc(Cl)cc2)C2CC2)cc1 [FLUCYCLOXURON]	–	–	–	–	–	–	mortality at 0.025 µg/mL (Culex pipiens pallens [20]): 15%; mortality at 0.05 µg/mL (Culex pipiens pallens [21]): 100%; mortality at 0.1 µg/mL (Culex pipiens pallens [17]): 100%; mortality at 2.5 µg/mL (Mythimna separata [14]): 50%; mortality at 1 µg/mL (Mythimna separata [22]): 10%; mortality at 5 µg/mL (Mythimna separata [15]): 90%; mortality at 10 µg/mL (Mythimna separata [10]): 95%
